Source: US10160831B2, “Astaxanthin based polymer and uses thereof” (SHENKAR COLLEGE OF ENGINEERING AND DESIGN, priority 2014, dated 2018)

How the values were obtained:
[1] = system: S. aureus and S. epidermidis isolates; experiment: Semi-quantitative biofilm assay (crystal violet, OD570) after culturing for 24 h; type: cell-based; settings: 24 h culture, OD570, FIG. 12B, p≤0.005
Description: 3 ml Trypticase Soy Broth was inoculated with a colony from an overnight plate. Pre-cultures were grown at 37° C. with shaking to mid-exponential phase (2-3 h), and then used to inoculate fresh TSB to a starting OD600 of 0.01. 200 μl aliquots of this suspension were then inoculated into wells of one full row of the test plate. The plate was then incubated in a FLUOstar OPTIMA microplate reader at 37° C., and the optical density of each well measured every hour over a 24 h period. After 24 h the suspension in each plate was removed. The plate itself was washed three times with phosphate buffered saline, pH 7.4 (PBS), air dried and stained with 150 μl crystal violet solution. The dye bound to any attached cells was solubilized by addition of 150 μl of 95% ethanol. Optical density was measured as absorbance at 570 nm using a FLUOstar OPTIMA microplate reader and biofilm positive defined as OD570 above 1. All S. aureus and S. epidermidis isolates were tested in triplicate in three independent experiments. Each plate also consisted of negative controls (wells without bacterial inoculation). Data was analyzed using unpaired t-tests or one-way ANOVA, and the level of significance set at p<0.05. The ability of the bacteria to form a biofilm in the presence of the ATX samples was determined after culturing for 24 h using a semi-quantitative biofilm assay.

[2] = system: S. epidermidis 1457; experiment: Bacterial growth on coated 96 well plates, optical density over 24 h; type: cell-based; settings: coated wells, 37° C., FIG. 12A
Description: The potential antibacterial properties of polymer based ATX samples were tested against Staphylococcus aureus MRSA252, S. aureus MSSA476 and S. epidermidis 1457. Using solvent casting method [J. Ghosh et al., Polymer, vol. 52, pp. […]], 96 well plates were coated with the following samples—ATX only, ATX+sebacic acid (SA), ATX+Hexadecanoic acid (HA) and ATX+sebacic acid+2% polyethylene glycol (PEG). Each sample coated 3 wells per row and the last row was left blank as a control.
3 ml Trypticase Soy Broth was inoculated with a colony from an overnight plate. Pre-cultures were grown at 37° C. with shaking to mid-exponential phase (2-3 h), and then used to inoculate fresh TSB to a starting OD600 of 0.01. 200 μl aliquots of this suspension were then inoculated into wells of one full row of the test plate. The plate was then incubated in a FLUOstar OPTIMA microplate reader at 37° C., and the optical density of each well measured every hour over a 24 h period. […]
Optical density was measured as absorbance at 570 nm using a FLUOstar OPTIMA microplate reader and biofilm positive defined as OD570 above 1. […] Data was analyzed using unpaired t-tests or one-way ANOVA, and the level of significance set at p<0.05. The ability of the bacteria to form a biofilm in the presence of the ATX samples was determined after culturing for 24 h using a semi-quantitative biofilm assay.

## CC1=C(/C=C/C(C)=C/C=C/C(C)=C/C=C/C=C(C)/C=C/C=C(C)/C=C/C2=C(C)C(=O)[C@@H](O)CC2(C)C)C(C)(C)C[C@H](O)C1=O [ATX, 3,3′-dihydroxy-β,βcarotene-4,4′-dione]
[1]
  biofilm formation on coated surface vs control: inhibited the bacteria from forming biofilm
[2]
  effect on growth of the bacteria (optical density): significant effect on inhibiting the growth
